Experimental data published in ChEMBL document CHEMBL4308846, “How Selective Are Pharmacological Inhibitors of Cell-Cycle-Regulating Cyclin-Dependent Kinases?” (J Med Chem, 2018).
Activity calls are given as the source filed them. No cut-off for these calls is given here.

Tests used:
[1] = biological target: Cyclin-dependent kinase 2/cyclin E1 (Homo sapiens, UniProt P24941); experiment: biochemical
[2] = biological target: Cyclin-dependent kinase 5/CDK5 activator 1 (Homo sapiens, UniProt Q00535); experiment: biochemical
[3] = biological target: Cyclin-dependent kinase 4/cyclin D1 (Homo sapiens, UniProt P11802); experiment: biochemical
CDK9/cyclin T1 = CDK9/cyclin T1 (Homo sapiens, UniProt P50750); experiment: biochemical
CDK2/Cyclin A2 = CDK2/Cyclin A2 (Homo sapiens, UniProt P24941)
CDK7/Cyclin H/MNAT1 = CDK7/Cyclin H/MNAT1 (Homo sapiens, UniProt P50613); experiment: biochemical
[4] = biological target: Cyclin-dependent kinase 5/CDK5 activator 1 (Homo sapiens) (UniProt Q00535+Q15078); experiment: Inhibition of CDK5/p25 in human HCT116 cells assessed as induction of dephosphorylation of FAK at Ser732 residue at 1 to 5 uM after 24 hrs by Western blot analysis; format: cell-based
HCT-116 [5] = experiment: Induction of cell cycle arrest in CDK2 knocked out human HCT116 cells assessed as accumulation at G2/M phase at 0.8 to 5.9 after 24 hrs by propidium iodide-staining based flow cytometry; format: functional
HCT-116 [6] = experiment: Induction of cell cycle arrest in human HCT116 cells assessed as accumulation at G2/M phase at 0.2 to 13.2 uM after 24 hrs by propidium iodide-staining based flow cytometry relative to control; format: functional
[7] = biological target: Cyclin-dependent kinase 1/cyclin B1 (Homo sapiens, UniProt P06493); experiment: biochemical
HCT-116 [8] = experiment: Induction of cell cycle arrest in human HCT116 cells assessed as reduction in accumulation at G1 phase at 0.15 to […] after 24 hrs by propidium iodide-staining based flow cytometry; format: functional
HCT-116 [9] = experiment: Induction of cell cycle arrest in human HCT116 cells assessed as accumulation at G2/M phase at 0.15 to […] after 24 hrs by propidium iodide-staining based flow cytometry relative to control; format: functional
[10] = biological target: Cyclin-dependent kinase 4 (Homo sapiens) (UniProt P11802); experiment: Inhibition of CDK4 (unknown origin) at 10 uM
HCT-116 [11] = experiment: Induction of cell cycle arrest in human HCT116 cells assessed as reduction in accumulation at G1 phase at 0.5 to 5.9 uM after 24 hrs by propidium iodide-staining based flow cytometry; format: functional; set-up: scale not given: the % may be the effect or the level left
[12] = biological target: Cyclin-dependent kinase 6 (Homo sapiens) (UniProt Q00534); experiment: Inhibition of CDK6 (unknown origin) at 10 uM
Aurora kinase A = biological target: T1, Aurora kinase A (Homo sapiens, UniProt O14965); experiment: Inhibition of GST-tagged AURORA A (unknown origin) expressed in baculovirus infected Sf9 cells using MBP as substrate
T1 sequence (O14965 whole entry): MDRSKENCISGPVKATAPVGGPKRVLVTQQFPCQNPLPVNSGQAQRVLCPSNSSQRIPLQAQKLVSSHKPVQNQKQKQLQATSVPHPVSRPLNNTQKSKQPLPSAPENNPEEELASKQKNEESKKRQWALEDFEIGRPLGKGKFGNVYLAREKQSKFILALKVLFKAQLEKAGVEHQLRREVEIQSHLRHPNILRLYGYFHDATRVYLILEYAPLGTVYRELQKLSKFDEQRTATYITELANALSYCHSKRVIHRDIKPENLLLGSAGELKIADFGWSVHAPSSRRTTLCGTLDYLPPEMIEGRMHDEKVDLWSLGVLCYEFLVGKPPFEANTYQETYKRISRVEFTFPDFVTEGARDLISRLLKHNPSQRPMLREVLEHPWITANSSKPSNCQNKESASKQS

Homo sapiens [13] = species: Homo sapiens; experiment: Selectivity index, ratio of IC50 for inhibition of His-tagged CDK1/cyclin B1 (unknown origin) expressed in Baculovirus infected Sf9 cells to IC50 for inhibition of GST-tagged AURORA B (unknown origin) expressed in baculovirus infected Sf9 cells
Aurora kinase B [14] = biological target: T2, Aurora kinase B (Homo sapiens, UniProt Q96GD4); experiment: Inhibition of AURORA B in human HCT116 cells assessed as reduction in histone H3 phosphorylation at S10 residues after 24 hrs by Western blot analysis; format: cell-based
HCT-116 [15] = experiment: Induction of cell cycle arrest in human HCT116 cells assessed as accumulation at G2/M phase after 24 hrs by propidium iodide-staining based flow cytometry; format: functional
Homo sapiens [16] = species: Homo sapiens; experiment: Selectivity index, ratio of IC50 for inhibition of His-tagged CDK1/cyclin B1 (unknown origin) expressed in Baculovirus infected Sf9 cells to IC50 for inhibition of GST-tagged AURORA A (unknown origin) expressed in baculovirus infected Sf9 cells
[17] = biological target: Cyclin-dependent kinase 1 (Homo sapiens) (UniProt P06493); experiment: Inhibition of CDK1 (unknown origin) at 10 uM
Aurora kinase B [18] = biological target: T2, Aurora kinase B; experiment: biochemical
HCT-116 [19] = experiment: Induction of cell cycle arrest in human HCT116 cells assessed as accumulation at 8N stage at 1.25 to 5 uM after 24 hrs by propidium iodide-staining based flow cytometry; format: functional
[20] = biological target: Cyclin-dependent kinase 2 (Homo sapiens, UniProt P24941)
HCT-116 [21] = experiment: Induction of cell cycle arrest in human HCT116 cells assessed as accumulation at G2/M phase 1.25 to 20 uM after 24 hrs by propidium iodide-staining based flow cytometry relative to control; format: functional
HCT-116 [22] = experiment: Induction of cell cycle arrest in human HCT116 cells assessed as reduction in accumulation at G1 phase 1.25 to 20 uM after 24 hrs by propidium iodide-staining based flow cytometry; format: functional

Sequence of Cyclin-dependent kinase 5/CDK5 activator 1 (Q00535 whole entry): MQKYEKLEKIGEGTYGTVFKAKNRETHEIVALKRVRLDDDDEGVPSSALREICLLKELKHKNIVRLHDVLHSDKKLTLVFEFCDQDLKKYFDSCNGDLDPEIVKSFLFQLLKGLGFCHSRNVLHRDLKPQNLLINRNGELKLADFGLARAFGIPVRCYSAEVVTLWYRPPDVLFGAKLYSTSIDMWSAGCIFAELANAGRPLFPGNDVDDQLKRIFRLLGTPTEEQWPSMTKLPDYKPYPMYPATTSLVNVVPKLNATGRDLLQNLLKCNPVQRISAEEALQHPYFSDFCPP
Sequence of Cyclin-dependent kinase 5/CDK5 activator 1 (Q15078 whole entry, further chain): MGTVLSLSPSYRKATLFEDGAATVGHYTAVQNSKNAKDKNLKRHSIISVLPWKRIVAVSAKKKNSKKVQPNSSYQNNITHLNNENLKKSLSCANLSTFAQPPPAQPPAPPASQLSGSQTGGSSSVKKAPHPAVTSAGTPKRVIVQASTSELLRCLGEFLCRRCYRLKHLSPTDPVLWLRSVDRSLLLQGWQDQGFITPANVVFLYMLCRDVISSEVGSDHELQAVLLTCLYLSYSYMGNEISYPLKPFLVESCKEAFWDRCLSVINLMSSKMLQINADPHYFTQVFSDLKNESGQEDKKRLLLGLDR
Sequence of CDK7/Cyclin H/MNAT1 (P51946 whole entry): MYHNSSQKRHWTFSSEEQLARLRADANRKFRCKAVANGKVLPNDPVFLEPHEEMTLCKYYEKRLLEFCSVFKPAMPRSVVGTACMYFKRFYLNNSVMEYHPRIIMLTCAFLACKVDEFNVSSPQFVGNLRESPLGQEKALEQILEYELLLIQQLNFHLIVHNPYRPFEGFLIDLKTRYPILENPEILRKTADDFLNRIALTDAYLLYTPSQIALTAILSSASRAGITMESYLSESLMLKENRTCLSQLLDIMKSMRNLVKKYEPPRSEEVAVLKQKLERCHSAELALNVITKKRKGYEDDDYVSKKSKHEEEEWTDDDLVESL
Sequence of CDK7/Cyclin H/MNAT1 (P50613 whole entry): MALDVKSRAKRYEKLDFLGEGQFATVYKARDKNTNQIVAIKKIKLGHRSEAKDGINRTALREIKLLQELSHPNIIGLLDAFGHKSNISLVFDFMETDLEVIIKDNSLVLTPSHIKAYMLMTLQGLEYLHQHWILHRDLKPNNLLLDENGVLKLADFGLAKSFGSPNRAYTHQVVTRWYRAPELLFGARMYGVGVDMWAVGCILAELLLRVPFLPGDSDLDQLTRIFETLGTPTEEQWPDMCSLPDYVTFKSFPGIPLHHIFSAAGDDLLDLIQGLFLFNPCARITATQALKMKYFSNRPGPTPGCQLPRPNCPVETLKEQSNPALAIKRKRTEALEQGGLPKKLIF
Sequence of CDK7/Cyclin H/MNAT1 (P51948 whole entry, further chain): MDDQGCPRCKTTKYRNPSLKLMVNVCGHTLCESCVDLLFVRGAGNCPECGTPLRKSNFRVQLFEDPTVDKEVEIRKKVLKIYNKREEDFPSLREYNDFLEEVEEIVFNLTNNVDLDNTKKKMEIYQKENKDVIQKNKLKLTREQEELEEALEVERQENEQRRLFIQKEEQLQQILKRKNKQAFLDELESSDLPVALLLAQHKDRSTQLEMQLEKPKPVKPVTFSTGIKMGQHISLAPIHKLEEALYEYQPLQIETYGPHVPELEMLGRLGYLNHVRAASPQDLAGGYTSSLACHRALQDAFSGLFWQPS
Sequence of Cyclin-dependent kinase 4/cyclin D1 (P11802 whole entry): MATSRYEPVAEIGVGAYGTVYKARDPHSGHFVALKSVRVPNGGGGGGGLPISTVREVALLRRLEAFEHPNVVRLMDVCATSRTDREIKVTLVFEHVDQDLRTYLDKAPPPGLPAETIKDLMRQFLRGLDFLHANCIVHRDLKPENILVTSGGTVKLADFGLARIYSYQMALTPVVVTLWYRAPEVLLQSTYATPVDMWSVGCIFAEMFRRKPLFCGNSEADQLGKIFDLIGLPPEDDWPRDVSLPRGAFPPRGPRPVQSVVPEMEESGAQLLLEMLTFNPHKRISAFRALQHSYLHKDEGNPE
Sequence of Cyclin-dependent kinase 4/cyclin D1 (P24385 whole entry, further chain): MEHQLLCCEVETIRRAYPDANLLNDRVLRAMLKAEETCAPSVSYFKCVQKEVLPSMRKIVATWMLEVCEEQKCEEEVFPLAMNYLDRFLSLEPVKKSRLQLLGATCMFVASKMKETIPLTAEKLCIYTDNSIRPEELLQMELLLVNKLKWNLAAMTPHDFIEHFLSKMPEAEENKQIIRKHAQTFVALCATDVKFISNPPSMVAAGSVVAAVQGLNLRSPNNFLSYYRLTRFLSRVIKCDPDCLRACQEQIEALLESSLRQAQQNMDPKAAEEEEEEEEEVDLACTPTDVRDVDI
Sequence of Cyclin-dependent kinase 1/cyclin B1 (P06493 whole entry): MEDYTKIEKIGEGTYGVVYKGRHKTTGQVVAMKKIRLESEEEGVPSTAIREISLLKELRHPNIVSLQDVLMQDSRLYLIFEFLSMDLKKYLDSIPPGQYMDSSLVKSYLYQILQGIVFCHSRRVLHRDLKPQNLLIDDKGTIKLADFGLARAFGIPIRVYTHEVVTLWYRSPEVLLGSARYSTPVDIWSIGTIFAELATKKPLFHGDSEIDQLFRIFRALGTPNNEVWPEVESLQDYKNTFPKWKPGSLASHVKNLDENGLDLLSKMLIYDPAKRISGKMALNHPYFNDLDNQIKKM
Sequence of Cyclin-dependent kinase 1/cyclin B1 (P14635 whole entry, further chain): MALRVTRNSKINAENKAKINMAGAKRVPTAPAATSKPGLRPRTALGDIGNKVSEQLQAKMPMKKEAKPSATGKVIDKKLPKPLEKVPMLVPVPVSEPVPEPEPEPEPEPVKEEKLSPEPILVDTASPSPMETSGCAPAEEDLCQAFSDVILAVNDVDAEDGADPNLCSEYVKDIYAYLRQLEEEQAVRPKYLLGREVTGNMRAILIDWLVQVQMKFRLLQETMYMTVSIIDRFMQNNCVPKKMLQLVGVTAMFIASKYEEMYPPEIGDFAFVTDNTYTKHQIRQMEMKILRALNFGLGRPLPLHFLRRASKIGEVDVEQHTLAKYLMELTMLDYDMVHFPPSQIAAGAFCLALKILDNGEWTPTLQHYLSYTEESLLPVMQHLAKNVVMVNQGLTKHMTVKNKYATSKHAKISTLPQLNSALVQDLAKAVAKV
Sequence of CDK9/cyclin T1 (O60563 whole entry): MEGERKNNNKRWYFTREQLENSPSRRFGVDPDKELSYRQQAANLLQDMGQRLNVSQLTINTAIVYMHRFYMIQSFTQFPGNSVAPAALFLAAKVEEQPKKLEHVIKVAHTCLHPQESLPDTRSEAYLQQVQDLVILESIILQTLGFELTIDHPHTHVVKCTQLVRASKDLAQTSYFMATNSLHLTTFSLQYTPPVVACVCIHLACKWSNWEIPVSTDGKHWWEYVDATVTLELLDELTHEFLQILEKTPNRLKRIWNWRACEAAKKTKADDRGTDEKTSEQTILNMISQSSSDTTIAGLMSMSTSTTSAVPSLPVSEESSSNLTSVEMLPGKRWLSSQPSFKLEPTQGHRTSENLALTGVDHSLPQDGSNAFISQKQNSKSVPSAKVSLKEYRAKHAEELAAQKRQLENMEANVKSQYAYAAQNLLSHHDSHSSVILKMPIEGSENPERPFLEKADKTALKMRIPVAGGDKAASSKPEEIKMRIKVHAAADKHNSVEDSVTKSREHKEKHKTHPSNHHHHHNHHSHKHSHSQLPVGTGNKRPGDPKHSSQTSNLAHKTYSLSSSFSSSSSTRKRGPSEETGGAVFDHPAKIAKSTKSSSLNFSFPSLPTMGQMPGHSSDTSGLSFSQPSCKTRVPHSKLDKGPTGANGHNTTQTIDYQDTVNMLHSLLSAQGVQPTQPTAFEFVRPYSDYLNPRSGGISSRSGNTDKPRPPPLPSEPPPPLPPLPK
Sequence of CDK9/cyclin T1 (P50750 whole entry): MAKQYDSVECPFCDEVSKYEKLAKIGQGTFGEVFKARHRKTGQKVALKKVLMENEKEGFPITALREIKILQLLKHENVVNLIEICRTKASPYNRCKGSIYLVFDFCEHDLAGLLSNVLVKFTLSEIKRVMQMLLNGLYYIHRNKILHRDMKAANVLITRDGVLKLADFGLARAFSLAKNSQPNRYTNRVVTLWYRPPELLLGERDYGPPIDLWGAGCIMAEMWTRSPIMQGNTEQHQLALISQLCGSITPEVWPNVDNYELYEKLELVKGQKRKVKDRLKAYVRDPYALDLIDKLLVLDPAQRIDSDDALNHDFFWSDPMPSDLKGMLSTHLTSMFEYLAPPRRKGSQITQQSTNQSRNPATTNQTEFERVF
T2 sequence (Q96GD4 whole entry): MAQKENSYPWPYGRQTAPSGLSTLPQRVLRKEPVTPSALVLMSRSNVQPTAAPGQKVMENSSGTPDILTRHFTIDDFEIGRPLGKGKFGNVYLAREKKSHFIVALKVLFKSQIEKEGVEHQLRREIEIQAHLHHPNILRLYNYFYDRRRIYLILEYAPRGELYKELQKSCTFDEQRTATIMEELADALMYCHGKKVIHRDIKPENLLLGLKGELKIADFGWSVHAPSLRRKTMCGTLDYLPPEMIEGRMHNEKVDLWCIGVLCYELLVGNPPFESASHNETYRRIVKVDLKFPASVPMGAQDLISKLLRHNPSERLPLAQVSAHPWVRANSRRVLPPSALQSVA
Sequence of Cyclin-dependent kinase 5/CDK5 activator 1 (Homo sapiens) (Q00535 whole entry): as the sequence (Q00535 whole entry) above
Sequence of Cyclin-dependent kinase 5/CDK5 activator 1 (Homo sapiens) (Q15078 99-307 partner limits assumed): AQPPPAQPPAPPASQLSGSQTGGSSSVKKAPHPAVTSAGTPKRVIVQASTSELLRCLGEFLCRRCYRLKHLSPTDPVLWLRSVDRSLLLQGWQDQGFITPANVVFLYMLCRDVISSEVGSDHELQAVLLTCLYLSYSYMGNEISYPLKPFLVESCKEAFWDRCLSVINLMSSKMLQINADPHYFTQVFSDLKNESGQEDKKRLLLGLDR

Row | Compound | IC50 [1] [nM] | IC50 [2] [nM] | IC50 [3] [nM] | IC50 (CDK9/cyclin T1) [nM] | IC50 (CDK2/Cyclin A2) [nM] | IC50 (CDK7/Cyclin H/MNAT1) [nM] | IC50 [7] [nM] | other results
1 | CCCCOc1c(C(=O)c2c(F)cc(C)cc2F)c[nH]c2nncc1-2 | 6 | 258 | 222 | 1800 | 71 | 1600 | 14 | inhibition [4]: Active; Activity (HCT-116 [5]): Active; Activity (HCT-116 [6]): 30 - 60%
2 | CN1CCN(c2ccc(Nc3ncc4cc(C#N)c(=O)n(C5CCCC5)c4n3)cc2)CC1 [NARAZACICLIB] | 377 | 272 | 18 | 117 | 55 | 6000 | 600 | Activity (HCT-116 [8]): Active; Activity (HCT-116 [9]): >=60%
3 | CCCOc1cnc(CN/C=C2\C(=O)NC(=O)c3ccc(I)cc32)cc1O | 501 | 1200 | 38 | 1000 | 71 | > 20000 | 290 | inhibition [10]: Active; Activity (HCT-116 [11]): <=30%; inhibition [12]: Active
4 | CCN(CC)C(=O)c1ccc(Nc2nc(OCC3CCCCC3)c3nc[nH]c3n2)cc1 | 1100 | 8800 | 940 | 5100 | 407000 | 2300 | 5800 | IC50 (Aurora kinase A): 67 nM; Ratio IC50 (Homo sapiens [13]): 6 to 10; inhibition (Aurora kinase B [14]): Dose-dependent effect; Activity (HCT-116 [15]): >=60%; Ratio IC50 (Homo sapiens [16]): 6 to 10; inhibition [17]: 44%; IC50 (Aurora kinase B [18]): 35 nM; Activity (HCT-116 [19]): Active; IC50 [20]: 400 nM
5 | O=C1NC(=O)c2c1c1c3ccccc3[nH]c1c1[nH]c3ccccc3c21 [STAUROSPORINE AGLYCON] |  | 936 | 199 | > 20000 | 135 | > 20000 | 964 | Activity (HCT-116 [21]): >=60%; Activity (HCT-116 [22]): Active
